{
  "source": "patent US20080125432A1",
  "about": "(Devgen NV, priority 2004, published 2008)",
  "key": {"[1]": {"system": "arterially perfused rabbit left ventricular wedge preparation", "assay": "Arterially perfused rabbit left ventricular wedge preparation (QT, Tp-e, EAD, TdP)", "details": "2000 ms BCL; for Tp-e: control 52.2 ± 3.7; for QT: control 288.2 ± 11.1; for EAD: events per preparations", "description": "The compounds were checked for their effect on the QT interval, the Tp-e interval (Yan and Antzelevitch, Circulation 1998; 98:1928-1936; Yan et al, Circulation 2001; 103:2851-2856) that approximates closely to transmural dispersion of repolarization (TDR), the Tp-e/QT ratio that reflects the potential of phase 2 early afterdepolarization (EAD) development in sub- and/or endocardium (Joshi et al, Journal of Electrocardiology, 2004, 34 (suppl): 7-14) and the phenomena dependent on phase 2 EAD (i.e. R on T extrasystole and TdP) in the isolated arterially-perfused rabbit ventricular wedge preparation.\nFemale rabbits weighting 2.5-3 kg were anticoagulated with heparin and anesthetized with pentobarbital (30-35 mg/kg, i.v.). The chest was opened via left thoracotomy, and the heart was excised and placed in a cardioplegic solution consisting of cold (4° C.) normal Tyrode s solution (in mmol/l: NaCl 129, KCl 4.0, CaCl2 1.8, NaH2PO4 0.9, MgSO4 0.5, NaHCO3 20, glucose 5.5). A transmural wedge, approximately 1.5 cm wide and 2-3 cm long, was dissected from the left ventricle and rapidly cannulated via the left anterior descending artery or the circumflex artery and perfused with cardioplegic solution for <4 min. The preparation was then transferred to a tissue bath (100 ml) and perfused with warm (35.7±0.1° C.) Tyrode's solution containing 4 mM K^+ buffered ? with 95% O2 and 5% CO2. Perfusion pressure was set at 40-50 mmHg by using a peristaltic pump. The preparation was paced at a basic cycle length of 1000 ms and allowed to equilibrate for approximately 1 h, the time necessary to achieve electrical stability. Electrical pacing was delivered via bipolar silver electrodes insulated except at the tips and applied to the endocardial surface.\nAfter the preparation equilibrated for one hour, the experiment was initiated. During the infusion of the compounds, the preparation was stimulated from the endocardium at basic cycle lengths of 1000 ms from the beginning of the infusion to the 20th minute and then at 2000 ms from the 20th minute to the 30th minute. At the end of each pacing cycle length, the ECG signal was sampled for 1 to 2 min at a sampling rate of 1562 Hz (Spike 2 software, CED, England)\nA transmural ECG signal was recorded in all experiments. The QT interval was defined as the time from the onset of the QRS to the point at which the final downslope of the T wave across isoelectric line. The QT interval values were derived from the mean values of four consecutive beats. (Yan and Antzelevitch, Circulation 1998; Yan et al, Circulation 2001; 103:2851-2856; and Antzelevitch, Journal of Electrocardiology 2004; 37(Suppl): 15-24)."}, "Male mice (NRMI)": {"system": "Male mice (NRMI)", "assay": "In vivo telemetry ECG recording in mice, intraperitoneal application", "details": "consecutive dosing i.p. (3-15 μM/kg), n=5", "method": "Male mice (NRMI) were anesthetized with a gas mixture of isoflurane, nitrous oxide and oxigen. Leads connected to a telemetry transmitter (TA10EA-F20, DSI, St. Paul, USA) were fixed by suture in the xiphoid and ventral neck region. The telemetry transmitter was placed under the skin on the back. Wounds were closed in layers and the animals were allowed to recover for at least 1 week.\nOn the day of the experiment the animals receive consecutive doses of vehicle i.p. at 60 min dosing intervals. ECG tracings (12 s duration) was recorded using the Data Sciences A.R.T. system. After completion of the experiment ECGs were analyzed automatically by Data Sciences ECG software (DSI, St. Paul, USA). QT and QRS intervals were measured manually in the stored ECGs. QTc was calculated from the QT interval and the corresponding heart rate using Bazett's formula. Heart rate was taken from the online analysis, given by the DSI Labpro and DSI A.R.T. systems (DSI, St. Paul, USA). Finally, ECG intervals were transferred to an Excel spreadsheet, checked for plausibility, and converted into 15 min averages."}},
  "data": [
    {"smiles": "COc1ccccc1Nc1nc(C)c(C(=O)N[C@H]2CCC[C@@H]2OCc2ccccc2)s1", "note": "[Compound 68, 2-(2-methoxy-phenylamino)-4-methyl-thiazole-5-carboxylic acid (1S,2S)-2-(benzyloxycyclopent-1-yl) amide]", "values": [
      {"measurement": "TdP Score", "setting": "[1]; 1 μmol/l", "value": "0.0 ± 0.0"},
      {"measurement": "Tp-e", "setting": "[1]; 1 μmol/l", "value": "52.0 ± 3.9", "unit": "ms"},
      {"measurement": "QT", "setting": "[1]; 1 μmol/l", "value": "287.6 ± 11.4", "unit": "ms"},
      {"measurement": "EAD", "setting": "[1]; 1 μmol/l", "value": "0/5"},
      {"measurement": "TdP Score", "setting": "[1]; 3 μmol/l", "value": "0.0 ± 0.0"},
      {"measurement": "Tp-e", "setting": "[1]; 3 μmol/l", "value": "51.4 ± 4.0", "unit": "ms"},
      {"measurement": "QT", "setting": "[1]; 3 μmol/l", "value": "286.6 ± 12.0", "unit": "ms"},
      {"measurement": "EAD", "setting": "[1]; 3 μmol/l", "value": "0/5"},
      {"measurement": "QT and QTc intervals in the mouse ECG", "setting": "Male mice (NRMI); 60 min dosing intervals", "value": "significant, dose-dependent but late onset prolongation"},
      {"measurement": "Heart rate", "setting": "Male mice (NRMI)", "value": "minor and not significant decrease"},
      {"measurement": "Locomotor activity", "setting": "Male mice (NRMI)", "value": "reproducible rise after each of the subsequent injections"},
      {"measurement": "PQ and QRS in the mouse ECG", "setting": "Male mice (NRMI)", "value": "did not show dose-dependent changes"}
    ]}
  ]
}
